In PMC6832134, “Discovery of Novel Integrase Inhibitors Acting outside the Active Site Through High-Throughput Screening” (Molecules, 2019):

Legend:
HIV-1 IN mutant N155H = target: T1, HIV-1 IN mutant N155H (Human immunodeficiency virus type 1 group M subtype B, UniProt P12497, N1302H); test: biochemical; type: biochemical
T1 construct: RAL-resistant HIV-1 mutant integrases; made in house; host or cells: E. coli RosettaII
Procedure: IN reactions were carried out by adding drugs or an equivalent volume of 100% DMSO (dimethyl sulfoxide, used as the drug solvent) to a mixture of 20 nM duplex DNA (21T/21B) and 400 nM IN in 50 mM MOPS pH 7.2, 7.5 mM MgCl2, and 14 mM 2-mercaptoethanol. Reactions were performed at 37 °C for 2 h and quenched by addition of an equal volume of loading buffer [formamide containing 1% SDS (sodium dodecyl sulfate), 0.25% bromophenol blue, and xylene cyanol]. Reaction products were separated in 16% polyacrylamide denaturing sequencing gels. Dried gels were visualized using a Typhoon 8600 (GE Healthcare, Piscataway, NJ, USA). Densitometric analyses were performed using the ImageQuant 5.1 software from GE Healthcare. Data analyses (linear regression, IC50 determination, and standard deviation) were performed using Prism 6.05 software from GraphPad.

IN-DNA binding = target: T2, IN-DNA binding (Human immunodeficiency virus type 1 group M subtype B, UniProt P12497); test: IN-DNA binding by fluorescence anisotropy; parameters: species or system HIV-1
T2 construct: 250 nM of recombinant HIV-1 integrase; made in house; host or cells: E. coli RosettaII
Text: Although the CCD alone harbors all of the structural determinants of the active site to support the catalytic activity, the NTD and CTD have been implicated in both the quaternary architecture of the enzyme and DNA binding. Because outer domains (NTD and/or CTD) appeared important in the inhibition of IN by NSC34931, we wondered if stilbene disulfonic acid derivatives might compete with DNA binding. To test whether NSC34931 competed with substrate binding, we developed a plate-based assay with a fluorescent DNA substrate.
In addition, controls with DMSO (0 µM) or without IN (DNA only) were included. Data represent the mean of three independent experiments.
DNA binding was measured using a plate-based assay as previously described. […] Compounds or DMSO were incubated at room temperature for 5 min in the IN-activity buffer, in the absence or the presence of IN (400 nM). After addition of the DNA (10 nM), fluorescence anisotropy was measured every 30 s for 30 min using an Envision plate reader (Perkin Elmer, Waltham, MA, USA).

[1] = tested on: VSV pseudo-typed HIV-1 virus particles; test: organism not typed; type: cell-based
HIV-1 IN = target: T3, HIV-1 IN (Human immunodeficiency virus type 1 group M subtype B, UniProt P12497); test: Synergy test with the active site inhibitor MK-2048; type: biochemical; details: subinhibitory dose of stilbene disulfonic acid derivative; IC50 of MK-2048 not affected; data not shown
T3 construct: 250 nM of recombinant HIV-1 integrase; made in house; host or cells: E. coli RosettaII

in vitro = details: human

For `O=S(=O)(O)c1cc(/N=N/c2cc(S(=O)(=O)O)c3ccccc3c2O)ccc1/C=C/c1ccc(/N=N/c2cc(S(=O)(=O)O)c3ccccc3c2O)cc1S(=O)(=O)O` [NSC34931], the IC50 (HIV-1 IN mutant N155H) was 0.16 µM, the “fold lower concentration for IN-DNA binding inhibition than for inhibition of 3'-P and ST” value (IN-DNA binding) was “about 10” and the “concentration giving full inhibition of IN-DNA binding” value (IN-DNA binding; fluorescence anisotropy) was 51 nM. For the same compound, the “effect on IN substrate (DNA) binding” value (IN-DNA binding; fluorescence anisotropy over 30 min) was “strongly and durably prevented IN-DNA binding”, the “Selectivity Index SI” value [1] was 19.2 and the EC50 ([1]; read-out: Ex Vivo Antiviral Activity EC50) was 3.07 µM. For the same compound, the “synergy with active site inhibitor MK-2048” value (HIV-1 IN) was “could not see any cooperative effect” and the CC50 (in vitro) was 59 µM.
